Measurements from patent US11680268B2, “Methods for improving CRISPR/Cas-mediated genome-editing” (Editas Medicine, Inc., priority 2014, dated 2023).

Tests used:
HBB locus [1] = assay: Cas9 genome editing at the HBB locus, quantification of repair outcomes (reads); assay type: cell-based
Description: The data is a representation of at least four independent experiments with a minimum of 350 reads per condition.
FIG. 12B is a graph depicting the percentage of modification observed in U2OS cells edited at the HBB locus with D10A Cas9 and 2 gRNAs with or without BRCA2 or Rad51. FF is a negative control.

HBB locus [2] = assay: Repair outcomes at the HBB locus after Cas9 variant cleavage, Sanger sequencing of Topo clones; assay type: cell-based, human; details: U2OS cells
Description: The different repair outcomes induced in response to DSBs introduced by different Cas9 variants were examined (FIG. 3). […] Several different DNA repair outcomes including, e.g., indel mutations resulting from non-homologous end-joining, alternative NHEJ, HDR homologous recombination (HR) using the closely related HBD gene as an endogenous template, or homology dependent repair using an exogenous donor sequence were characterized.
For some conditions, 50 pmols of single stranded oligonucleotide donor (ss-ODN) was included. Cells were collected 6 days after electroporation and genomic DNA was extracted. PCR amplification of the HBB locus was performed and subcloned into a Topo Blunt Vector. For each condition in each experiment (more the 4 independent samples) 98 colonies were analyses were sequenced with Sanger sequencing and scored for either insertions, deletions, gene conversion or gene corrections.

HBB locus [3] = assay: Deletion length at the HBB locus after Cas9 variant cleavage; assay type: cell-based, human; details: U2OS cells, gRNAs 8 and 15, 6 days after electroporation
Protocol: In this experiment, the deletions occurring in response to different end structures induced by different Cas9 variants were analyzed. […] Cells were collected 6 days after electroporation and genomic DNA was extracted. PCR amplification of the HBB locus was performed and subcloned into a Topo Blunt Vector. For each condition in each experiment (more the 4 independent samples), 98 colonies were analyses were sequenced with Sanger sequencing. Deletions detected by Sanger sequencing were scored for the exact number of nucleotides deleted.

Row | Substance | repair pathway of the double strand breaks generated (HBB locus [1]) | engagement of the 5′ protruding end in HDR (HBB locus [1]; PAM facing in the opposite orientation, presence of a single-stranded oligonucleotide donor template nucleic acid) | efficacy compared to wildtype Cas9 (HBB locus [2]; gRNAs HBB-8 and HBB-15) | predominant repair outcome of the induced DSBs (HBB locus [2]; gRNAs HBB-8 and HBB-15, no exogenous ss-ODN, 6 days after electroporation) | repair using the ss-ODN as a template (HBB locus [2]; gRNAs HBB-8 and HBB-15, with 50 pmols ss-ODN) | size of deletions (HBB locus [3])
1 | D10A Cas9 mutant: Cas9 nickase with D10A mutation; D10A inactivates RuvC, only HNH activity; leaves 5′ protruding ends | predominantly repaired by HR | more prone to be engaged in HDR |  |  |  | 
2 | D10A: Cas9 nickase mutant (RuvC domain catalytic mutant); two gRNAs with PAMs outwards give 5′ protruding arms |  |  | comparable levels of efficacy compared to wildtype Cas9 | predominantly repaired by the gene conversion pathway | most efficient repair | mostly larger in nature
